Where a name gives a salt, the structure may show the parent alone.
Columns and labels:
p38alpha = biological target: T1, p38alpha (Homo sapiens, UniProt Q16539); test: P38Alpha enzyme inhibition assay (Alphascreen kinase activity assay); format: biochemical; settings: 100 pM p38alpha, 250 μM ATP, 2 hours pre-incubation at 25° C., read-out: p38α inhibition (IC50 values)
T1 construct: purchased Invitrogen PV3304
Method in brief: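 AlphaScreen read-out: after an EDTA stop, an anti-phospho-ATF2 antibody with Protein A acceptor and donor beads measured substrate phosphorylation. Compounds sat 2 h at 25°C with 100 pM p38α and 0.3 µg/ml ATF-2 fusion protein (pH 7.5, 1% DMSO) before 250 µM ATP was added for 1 h. IC50 from dose-response.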

[1] = system: LPS-stimulated TNFα release from PBMCs; test: LPS-stimulated PBMC TNFα release assay; format: cell-based; settings: inhibition of TNFα release, human PBMCs, LPS 10 ng/ml, 18 h, ELISA, read-out: p38α inhibition (IC50 values)
Method in brief: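 TNFα in supernatants measured by ELISA after 18 h LPS (10 ng/ml) challenge of human PBMCs given 1 h compound pretreatment at 37 °C in medium with 1% FBS. Percent inhibition versus control release fitted to dose-response curves for IC50; at least three independent runs.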

T1 sequence (Q16539 whole entry): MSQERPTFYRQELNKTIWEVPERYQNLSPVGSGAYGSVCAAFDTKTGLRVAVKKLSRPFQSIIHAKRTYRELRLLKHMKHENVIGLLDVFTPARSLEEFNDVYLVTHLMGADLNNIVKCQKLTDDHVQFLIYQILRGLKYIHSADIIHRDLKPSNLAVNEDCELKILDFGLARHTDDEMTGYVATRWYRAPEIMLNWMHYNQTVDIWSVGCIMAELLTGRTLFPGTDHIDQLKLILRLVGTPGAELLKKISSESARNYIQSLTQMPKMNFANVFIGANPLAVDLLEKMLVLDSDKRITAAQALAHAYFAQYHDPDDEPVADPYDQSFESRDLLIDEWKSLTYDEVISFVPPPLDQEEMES

SMILES	IC50 (p38alpha)	IC50 [1]
CN(C)CCOc1cccc(-n2nc(C(C)(C)C)cc2NC(=O)N[C@H]2CC[C@@H](Oc3ccc4nnc(N5C6CCCC5CC6)n4c3)c3ccccc32)c1 [Example 122, 1-{(1S,4R)-4-[3-(8-Aza-bicyclo[3.2.1]oct-8-yl)-[1,2,4]triazolo[4,3-a]pyridin-6-yloxy]-1,2,3,4-tetrahydro-naphthalen-1-yl}-3-{5-tert-butyl-2-[3-(2-dimethylamino-ethoxy)-phenyl]-2H-pyrazol-3-yl}-urea formate salt]	< 0.01 µM	< 0.01 µM
C[C@@H]1CCCCN1c1nnc2ccc(O[C@@H]3CC[C@H](NC(=O)Nc4cc(C(C)(C)C)nn4-c4cccc(OCCN(C)C)c4)c4ccccc43)cn12 [Example 123, 1-{5-tert-Butyl-2-[3-(2-dimethylamino-ethoxy)-phenyl]-2H-pyrazol-3-yl}-3-{(1S,4R)-4-[3-((R)-2-methyl-piperidin-1-yl)-[1,2,4]triazolo[4,3-a]pyridin-6-yloxy]-1,2,3,4-tetrahydro-naphthalen-1-yl}-urea partial formate salt]	< 0.01 µM	< 0.01 µM
C[C@@H]1CCC[C@H](C)N1c1nnc2ccc(O[C@@H]3CC[C@H](NC(=O)Nc4cc(C(C)(C)C)nn4-c4cnn(CCN5CCOCC5)c4)c4ccccc43)cn12 [Example 124, 1-[3-tert-Butyl-1′-(2-morpholin-4-yl-ethyl)-1′H-[1,4′]bipyrazolyl-5-yl]-3-((1S,4R)-4-[3-((2S,6R)-2,6-dimethyl-piperidin-1-yl)-[1,2,4]triazolo[4,3-a]pyridin-6-yloxy]-1,2,3,4-tetrahydro-naphthalen-1-yl)-urea formate salt]	< 0.01 µM	< 0.01 µM
C[C@@H]1CCC[C@H](C)N1c1nnc2ccc(O[C@@H]3CC[C@H](NC(=O)Nc4cc(C(C)(C)C)nn4-c4cnn(CCN(C)C)c4)c4ccccc43)cn12 [Example 125, 1-[3-tert-Butyl-1′-(2-dimethylamino-ethyl)-1′H-[1,4′]bipyrazolyl-5-yl]-3-{(1S,4R)-4-[3-((2S,6R)-2,6-dimethyl-piperidin-1-yl)-[1,2,4]triazolo[4,3-a]pyridin-6-yloxy]-1,2,3,4-tetrahydro-naphthalen-1-yl}-urea]	< 0.01 µM	< 0.01 µM
C[C@H]1CCCCN1c1nnc2ccc(O[C@@H]3CC[C@H](NC(=O)Nc4cc(C(C)(C)C)nn4C)c4ccccc43)cn12 [Example 126, 1-(5-tert-Butyl-2-methyl-2H-pyrazol-3-yl)-3-{(1S,4R)-4-[3-((S)-2-methyl-piperidin-1-yl)-[1,2,4]triazolo[4,3-a]pyridin-6-yloxy]-1,2,3,4-tetrahydronaphthalen-1-yl]-urea]	< 0.01 µM	< 0.01 µM
C[C@H]1CCCCN1c1nnc2ccc(O[C@@H]3CC[C@H](NC(=O)Nc4cc(C(C)(C)C)nn4CCN(C)C)c4ccccc43)cn12 [Example 127, 1-[5-tert-Butyl-2-(2-dimethylamino-ethyl)-2H-pyrazol-3-yl]-3-{(1S,4R)-4-[3-((S)-2-methyl-piperidin-1-yl)-[1,2,4]triazolo[4,3-a]pyridin-6-yloxy]-1,2,3,4-tetrahydro-naphthalen-1-yl}-urea formate salt]	< 0.01 µM	< 0.01 µM
C[C@H]1CCCCN1c1nnc2ccc(O[C@@H]3CC[C@H](NC(=O)Nc4cc(C(C)(C)C)nn4CCN4CCCCC4)c4ccccc43)cn12 [Example 128, 1-[5-tert-Butyl-2-(2-piperidin-1-yl-ethyl)-2H-pyrazol-3-yl]-3-{(1S,4R)-4-[3-((S)-2-methyl-piperidin-1-yl)-[1,2,4]triazolo[4,3-a]pyridin-6-yloxy]-1,2,3,4-tetrahydro-naphthalen-1-yl}-urea formate salt]	< 0.01 µM	< 0.01 µM
C[C@H]1CCCCN1c1nnc2ccc(O[C@@H]3CC[C@H](NC(=O)Nc4cc(C(C)(C)C)nn4CCN4CCN(C)CC4)c4ccccc43)cn12 [Example 129, 1-{5-tert-Butyl-2-[2-(4-methyl-piperazin-1-yl)-ethyl]-2H-pyrazol-3-yl}-3-{(1S,4R)-4-[3-((S)-2-methyl-piperidin-1-yl)-[1,2,4]triazolo[4,3-a]pyridin-6-yloxy]-1,2,3,4-tetrahydro-naphthalen-1-yl}-urea formate salt]	< 0.01 µM	0.01 to 0.1 µM
C[C@@H]1CCC[C@H](C)N1c1nnc2ccc(O[C@@H]3CC[C@H](NC(=O)Nc4cc(C(C)(C)C)nn4-c4cccc(CN5CCOCC5)c4)c4ccccc43)cn12 [Example 130, 1-[5-tert-Butyl-2-(3-morpholin-4-ylmethyl-phenyl)-2H-pyrazol-3-yl]-3-{(1S,4R)-4-[3-((2S,6R)-2,6-dimethyl-piperidin-1-yl)-[1,2,4]triazolo[4,3-a]pyridin-6-yloxy]-1,2,3,4-tetrahydro-naphthalen-1-yl}-urea formate salt]	< 0.01 µM	< 0.01 µM

Continued, in another order:

IC50 (p38alpha)	SMILES	IC50 [1]
< 0.01 µM	CN(C)CCCn1cc(-n2nc(C(C)(C)C)cc2NC(=O)N[C@H]2CC[C@@H](Oc3ccc4nnc(N5CCCCC5)n4c3)c3ccccc32)cn1 [Example 113, 1-[3-tert-Butyl-1′-(3-dimethylamino-propyl)-1′H-[1,4′]bipyrazolyl-5-yl]-3-[(1S,4R)-4-(3-piperidin-1-yl-[1,2,4]triazolo[4,3-a]pyridin-6-yloxy)-1,2,3,4-tetrahydro-naphthalen-1-yl]-urea formate salt]	< 0.01 µM
< 0.01 µM	CC(C)(C)c1cc(NC(=O)N[C@H]2CC[C@@H](Oc3ccc4nnc(N5CCCCC5)n4c3)c3ccccc32)n(-c2cnn(CCCN3CCOCC3)c2)n1 [Example 114, 1-[3-tert-Butyl-1′-(3-morpholin-4-yl-propyl)-1′H-[1,4′]bipyrazolyl-5-yl]-3-[(1S,4R)-4-(3-piperidin-1-yl-[1,2,4]triazolo[4,3-a]pyridin-6-yloxy)-1,2,3,4-tetrahydro-naphthalen-1-yl]-urea formate salt]	< 0.01 µM
< 0.01 µM	C[C@@H]1CCC[C@H](C)N1c1nnc2ccc(O[C@@H]3CC[C@H](NC(=O)Nc4cc(F)cc(N5CCOCC5)c4)c4ccccc43)cn12 [Example 115, 1-{(1S,4R)-4-[3-((2S,6R)-2,6-Dimethyl-piperidin-1-yl)-[1,2,4]triazolo[4,3-a]pyridin-6-yloxy]-1,2,3,4-tetrahydro-naphthalen-1-yl}-3-(3-fluoro-5-morpholin-4-yl-phenyl)-urea]	< 0.01 µM
< 0.01 µM	C[C@H]1CCCCN1c1nnc2ccc(O[C@@H]3CC[C@H](NC(=O)Nc4cc(C(C)(C)C)nn4CCN4CCOCC4)c4ccccc43)cn12 [Example 116, 1-[5-tert-Butyl-2-(2-morpholin-4-yl-ethyl)-2H-pyrazol-3-yl]-3-{(1S,4R)-4-[3-((S)-2-methyl-piperidin-1-yl)-[1,2,4]triazolo[4,3-a]pyridin-6-yloxy]-1,2,3,4-tetrahydro-naphthalen-1-yl}-urea]	< 0.01 µM
< 0.01 µM	C[C@@H]1CCC[C@H](C)N1c1nnc2ccc(O[C@@H]3CC[C@H](NC(=O)Nc4cc(C(C)(C)C)nn4CCO)c4ccccc43)cn12 [Example 118, 1-[5-tert-Butyl-2-(2-hydroxy-ethyl)-2H-pyrazol-3-yl]-3-{(1S,4R)-4-[3-((2S,6R)-2,6-dimethyl-piperidin-1-yl)-[1,2,4]triazolo[4,3-a]pyridin-6-yloxy]-1,2,3,4-tetrahydro-naphthalen-1-yl}-urea]	< 0.01 µM
< 0.01 µM	CN(C)CCn1cnc(-n2nc(C(C)(C)C)cc2NC(=O)N[C@H]2CC[C@@H](Oc3ccc4nnc(N5CCCCC5)n4c3)c3ccccc32)c1 [Example 119, 1-{5-tert-Butyl-2-[1-(2-dimethylamino-ethyl)-1H-imidazol-4-yl]-2H-pyrazol-3-yl}-3-[(1S,4R)-4-(3-piperidin-1-yl-[1,2,4]triazolo[4,3-a]pyridin-6-yloxy)-1,2,3,4-tetrahydro-naphthalen-1-yl]-urea]	0.01 to 0.1 µM
< 0.01 µM	CN1CCCC[C@H]1c1nnc2ccc(O[C@@H]3CC[C@H](NC(=O)Nc4cc(C(C)(C)C)nn4CCO)c4ccccc43)cn12 [Example 120, 1-[5-tert-Butyl-2-(2-hydroxy-ethyl)-2H-pyrazol-3-yl]-3-{(1S,4R)-4-[3-((S)-1-methyl-piperidin-2-yl)-[1,2,4]triazolo[4,3-a]pyridin-6-yloxy]-1,2,3,4-tetrahydro-naphthalen-1-yl}-urea]	< 0.01 µM
< 0.01 µM	C[C@@H]1CCC[C@H](C)N1c1nnc2ccc(O[C@@H]3CC[C@H](NC(=O)Nc4cc(C(C)(C)C)nn4CCN4CCOCC4)c4ccccc43)cn12 [Example 121, 1-[5-tert-Butyl-2-(2-morpholin-4-yl-ethyl)-2H-pyrazol-3-yl]-3-{(1S,4R)-4-[3-((2S,6R)-2,6-dimethyl-piperidin-1-yl)-[1,2,4]triazolo[4,3-a]pyridin-6-yloxy]-1,2,3,4-tetrahydro-naphthalen-1-yl}-urea]	< 0.01 µM

Source: patent publication US9315503B2, “Kinase inhibitors” (CHIESI FARMACEUTICI S.p.A., priority 2011, dated 2016)
